Columns and labels:
[1] = Dose normalized AUC in mouse at 3 mg/kg, po; type: ADME, organism-based; design: unit not given here; settings: in vivo
[2] = target: Potassium voltage-gated channel subfamily KQT member 1 (Homo sapiens, UniProt P51787); assay: Inhibition of Kv7.1 channel (unknown origin) upto 10000 nM; settings: 10 µM
[3] = Toxicity in dog assessed as discoloration in small intestine and oesophagus at 75 mg/kg/day, po QD for 4 days by macroscopic analysis; type: organism-based, Canis lupus familiaris; settings: in vivo, 96 h, time 4 day

Potassium voltage-gated channel subfamily KQT member 1, sequence (P51787 whole entry): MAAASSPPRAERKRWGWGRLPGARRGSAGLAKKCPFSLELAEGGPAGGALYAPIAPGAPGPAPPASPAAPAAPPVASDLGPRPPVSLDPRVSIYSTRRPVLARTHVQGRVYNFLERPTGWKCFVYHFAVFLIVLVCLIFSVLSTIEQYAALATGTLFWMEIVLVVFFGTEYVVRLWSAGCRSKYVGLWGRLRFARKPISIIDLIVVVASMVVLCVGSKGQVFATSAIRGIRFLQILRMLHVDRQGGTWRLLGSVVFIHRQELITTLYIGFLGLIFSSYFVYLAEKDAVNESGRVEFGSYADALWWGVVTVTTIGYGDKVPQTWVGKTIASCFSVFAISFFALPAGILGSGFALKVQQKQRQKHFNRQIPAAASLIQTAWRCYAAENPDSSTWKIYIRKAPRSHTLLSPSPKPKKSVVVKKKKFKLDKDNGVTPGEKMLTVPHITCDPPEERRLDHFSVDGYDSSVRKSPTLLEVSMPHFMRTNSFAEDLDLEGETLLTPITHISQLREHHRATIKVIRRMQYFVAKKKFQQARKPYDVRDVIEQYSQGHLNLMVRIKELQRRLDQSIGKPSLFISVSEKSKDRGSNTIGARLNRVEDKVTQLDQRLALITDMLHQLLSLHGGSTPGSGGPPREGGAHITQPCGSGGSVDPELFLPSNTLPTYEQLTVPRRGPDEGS

CC(C)(O)[C@H]1CC[C@H](NC(=O)c2cnc3nc(C4CC4)ccc3c2)CC1
AUC/dose [1]: 1320 | inhibition (INH) [2]: Not Active | Activity [3]: Toxic

— ChEMBL document CHEMBL5260850, “The exploration of aza-quinolines as hematopoietic prostaglandin D synthase (H-PGDS) inhibitors with low brain exposure” (Bioorg Med Chem, 2020)
